For test [1], the target named is T1, Human renin (Homo sapiens, UniProt P00797).
T1 construct: purchased National Institute for Biological Standards, London
T1 sequence (P00797 67-406): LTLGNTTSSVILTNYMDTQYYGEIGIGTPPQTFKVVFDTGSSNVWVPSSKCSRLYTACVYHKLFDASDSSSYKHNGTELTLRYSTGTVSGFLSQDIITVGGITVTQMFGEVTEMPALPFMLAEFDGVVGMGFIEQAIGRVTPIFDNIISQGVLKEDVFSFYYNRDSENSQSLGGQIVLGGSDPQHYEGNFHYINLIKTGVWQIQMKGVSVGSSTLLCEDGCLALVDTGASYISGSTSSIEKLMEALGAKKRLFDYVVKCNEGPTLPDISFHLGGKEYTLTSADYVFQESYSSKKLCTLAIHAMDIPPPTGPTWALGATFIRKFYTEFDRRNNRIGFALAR
Kind of test: human renin inhibition test in vitro (angiotensin I determined by radioimmunoassay). Type of test: biochemical. As to conditions: pH 7.4, 37° C., two hours, human plasma. As for the experimental part:
Compounds of Formula I were evaluated as inhibitors of human renin in an in vitro assay, as follows: This human renin inhibition test has been previously described in detail [Papaioannou, et al., Clinical and Experimental Hypertension, A7(9), 1243-1257 (1985)]. Human renin was obtained from the National Institute for Biological Standards, London. In a total volume of 0.25 mL 100 mM Tris-acetate buffer at pH 7.4, 25×10^-6 Goldblatt units of renin, 0.05 mL of plasma from human volunteers taking oral contraceptives, 6.0 mM sodium EDTA, 2.4 mM phenylmethyl sulfonyl fluoride, 1.5 mM 8-hydroxyquinoline, 0.4 mg/mL BSA, and 0.024 mg/mL neomycin sulfate were incubated for two hours at 37° C. in the presence or absence of renin inhibitors. The produced angiotensin I was determined by radioimmunoassay (New England Nuclear kit). Compounds of formula I to be assayed were solubilized in either ethyl alcohol or DMSO and diluted with 100 mM Tris-acetate buffer at pH 7.4 to the appropriate concentration. The final concentration of organic solvent in the reaction mixture was less than 1%. Control incubations at 37° C. were used to correct for effects of organic solvent on renin activity.

Test [2] has as its system pepsin. The following applies: cited from earlier work.
Test [3] has as its system hog renin. The following applies: after injection of hog renin into nephrectomized rats; cited from earlier work.
Test [4] concerns renin. The following applies: cited from earlier work.
Test [5] has as its system cathepsin D. The following applies: cited from earlier work.

We go through 3 compounds from patent US4877785A, “Non-peptidyl beta-succinamidoacyl aminodiols as anti-hypertensive agents” (G. D. Searle & Co., priority 1987, dated 1989).

Structures are written as SMILES. Where a SMILES comes first, the peptide text is derived from it. [ ]: non-standard residue; d: D form. The star is where a group is joined. Sta = CC(C)C[C@H](N)[C@@H](O)CC(=O)O; Isovaleryl = CC(C)CC(=O)*

With `CC(C)C[C@H](O)[C@H](O)[C@H](CC1CCCCC1)NC(=O)C(C)CNC(=O)C(CC(=O)N1CCOCC1)Cc1cccc2ccccc12` (single isomer, unassigned; isomer a) [Example 11], in test [1], it took 330 nM to reach half-maximal inhibition (IC50).

For the compound `CC(C)CC(=O)N[C@H](C(=O)N[C@H](C(=O)N[C@@H](CC(C)C)[C@@H](O)CC(=O)N[C@@H](C)C(=O)N[C@@H](CC(C)C)[C@@H](O)CC(=O)O)C(C)C)C(C)C` [pepstatin] (Isovaleryl-VV[Sta]A[Sta]-OH), in test [2], the inhibition of pepsin entry was “inhibitor”. Moreover, in test [3], the “reduction of blood pressure in vivo” value was “found to reduce blood pressure in vivo”. Besides, the inhibition of renin entry in test [4] is “inhibitor”. Also, the “inhibition of cathepsin D” value in test [5] was “inhibitor”.

As for `CC(C)C[C@H](O)[C@H](O)[C@H](CC1CCCCC1)NC(=O)C(C)CNC(=O)C(CC(=O)N1CCOCC1)Cc1cccc2ccccc12` (single isomer, unassigned; isomer b) [Example 13], 1000 nM corresponded to half-maximal inhibition in test [1] (IC50).
